Measured values as given in US20260201008A1, “SECRETIN-DERIVED GLP1R SELECTIVE AGONISTS” (GUBRA A/S, priority 2023, published 2026).
Like-named read-outs stand apart in the source and are kept apart here. Numbered stars: 1 amine (or outer) side, 2 acyl side, 3 side chain; on linkers, the order of the positions; unused ones are H or OH. Square brackets hold non-standard residues; d marks the D form. Side chains are listed from the residue outwards. Peptide text beside a SMILES is read from it. * marks the point of attachment. C20 diacid = O=C(O)CCCCCCCCCCCCCCCCCCC(=O)*; γGlu = O=C(O)[C@H](CCC(=O)[*:2])N[*:1]; AEEA = NCCOCCOCC(=O)O; Aib = CC(C)(N)C(=O)O

Key:
[1] = Turbidity of crude library peptides (absorbance at 600 nm); assay type: physicochemical; conditions: Physical stability of peptides
Procedure, shortened: (§1)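 Fibril formation is scored as average ThT fluorescence from duplicate samples monitored for 72 h at 40° C with shaking stress. Turbidity is the absorbance at 600 nm taken before heating. Peptide concentration was 267 μM at pH 4.0 or pH 7.0.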

[2] = Fibril formation of crude library peptides (Thioflavin T); assay type: physicochemical; parameters: key: average ThT fluorescence emission at 480 nm (ex 450 nm), raw units; conditions: Physical stability of peptides
Procedure, shortened: as §1

[3] = biological target: GLP1R (Homo sapiens, UniProt P43220); test: hGLP1R potency, cAMP accumulation in CHO-K1 cells stably overexpressing hGLP1R; assay type: cell-based; parameters: host or cells: CHO-K1; conditions: for EC50: cAMP accumulation; for SCTR EC50/GLP1R EC50 ratio: cAMP accumulation in CHO-K1 cells
Chain of GLP1R (P43220 24-463): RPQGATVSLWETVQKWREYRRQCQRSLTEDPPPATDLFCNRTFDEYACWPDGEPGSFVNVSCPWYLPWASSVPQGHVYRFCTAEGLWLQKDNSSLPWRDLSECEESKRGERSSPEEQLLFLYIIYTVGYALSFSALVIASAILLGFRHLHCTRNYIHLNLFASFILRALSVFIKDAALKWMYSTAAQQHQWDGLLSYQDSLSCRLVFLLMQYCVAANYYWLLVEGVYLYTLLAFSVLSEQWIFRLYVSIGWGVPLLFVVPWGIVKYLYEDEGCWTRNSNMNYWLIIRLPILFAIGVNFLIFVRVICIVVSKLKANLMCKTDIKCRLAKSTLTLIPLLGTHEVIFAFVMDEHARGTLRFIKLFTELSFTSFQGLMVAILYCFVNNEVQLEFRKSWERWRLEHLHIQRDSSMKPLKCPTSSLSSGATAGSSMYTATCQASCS
Procedure, shortened: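 TR-FRET cAMP read-out, one hour after reagent addition, following 30 min compound exposure at RT in DPBS/0.05% casein/0.5 mM IBMX. Crude peptides: 5 points, 10-fold steps, n=1. Purified peptides: 11 points, 3-fold steps, n=2. EC50 fitted with a variable-slope sigmoid.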

[4] = biological target: SCTR (Homo sapiens, UniProt P47872); test: hSCTR potency, cAMP accumulation in CHO-K1 cells stably overexpressing hSCTR; assay type: cell-based; parameters: alternatively Euroscreen ES-712-AF; FAST-0161L; host or cells: CHO-K1; conditions: cAMP accumulation
Chain of SCTR (P47872 23-440): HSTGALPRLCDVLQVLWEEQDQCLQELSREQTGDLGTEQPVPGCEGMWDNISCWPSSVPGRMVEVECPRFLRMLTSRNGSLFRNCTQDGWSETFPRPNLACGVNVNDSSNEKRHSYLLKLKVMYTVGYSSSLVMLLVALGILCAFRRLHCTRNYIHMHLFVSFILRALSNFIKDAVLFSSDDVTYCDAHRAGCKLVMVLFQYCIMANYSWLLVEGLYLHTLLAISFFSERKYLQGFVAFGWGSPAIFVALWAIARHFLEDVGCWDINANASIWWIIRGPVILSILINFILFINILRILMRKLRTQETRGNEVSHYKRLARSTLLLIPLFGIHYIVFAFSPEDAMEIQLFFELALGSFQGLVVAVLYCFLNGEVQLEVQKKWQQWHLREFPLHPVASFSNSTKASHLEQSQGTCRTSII
Procedure, shortened: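 CHO-K1/hSCTR cells; DPBS + 0.05% casein + 0.5 mM IBMX; 30 min RT stimulation; cAMP by TR-FRET read at 1 h. Crude peptides: 5-point 10-fold dilutions, n=1. Purified: 11-point 3-fold dilutions, n=2. EC50 via variable-slope fit.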

[5] = CHO-K1 cells overexpressing hGLP1R, read-out: hGLP1R pEC50 (converted)
[6] = selectivity for hGLP1R over hSCTR
[7] = CHO-K1 cells overexpressing hSCTR, read-out: hSCTR pEC50 (converted)

| SMILES | Turbidity (pH 7) [1] | Fibril formation [2] | Selectivity ([3]; SCTR EC50/GLP1R EC50 ratio) | EC50 ([3]; CHO-K1 cells overexpressing hGLP1R, read-out: pEC50 hGLPR1 (converted)) [nM] | EC50 ([4]; CHO-K1 cells overexpressing hSCTR, read-out: pEC50 hSCTR (converted)) [nM] | EC50 [3, 5] [nM] | SCTR EC50/GLP1R EC50 ratio [3, 6] | EC50 [4, 7] [nM] | EC50 ([3]; CHO-K1 cells stably overexpressing hGLP1R, read-out: hGLP1R potency (pEC50) (converted)) [nM] | SCTR EC50/GLP1R EC50 ratio ([3]; selectivity ratio, hSCTR vs hGLP1R) | EC50 ([4]; CHO-K1 cells stably overexpressing hSCTR, read-out: hSCTR potency (pEC50) (converted)) [nM] |
| --- | --- | --- | --- | --- | --- | --- | --- | --- | --- | --- | --- |
| CC(C)C[C@H](NC(=O)[C@H](Cc1ccccc1)NC(=O)[C@H](CCCNC(=N)N)NC(=O)[C@H](CCC(N)=O)NC(=O)[C@H](CCC(=O)O)NC(=O)[C@H](C)NC(=O)[C@H](C)NC(=O)[C@H](CCC(=O)O)NC(=O)[C@H](CCC(=O)O)NC(=O)[C@H](CCCCNC(=O)COCCOCCNC(=O)COCCOCCNC(=O)CC[C@H](NC(=O)CCCCCCCCCCCCCCCCCCC(=O)O)C(=O)O)NC(=O)[C@H](CC(C)C)NC(=O)[C@H](Cc1ccccc1)NC(=O)[C@H](CO)NC(=O)[C@@H](NC(=O)[C@H](CC(=O)O)NC(=O)[C@H](CO)NC(=O)[C@@H](NC(=O)[C@H](Cc1ccccc1)NC(=O)[C@@H](NC(=O)CNC(=O)[C@H](CCC(=O)O)NC(=O)C(C)(C)NC(=O)[C@@H](N)Cc1c[nH]cn1)[C@@H](C)O)[C@@H](C)O)C(C)C)C(=O)N[C@@H](CCC(=O)O)C(=O)N[C@@H](Cc1c[nH]cn1)C(=O)N[C@@H](CC(C)C)C(=O)N[C@H](C(N)=O)C(C)C [compound 56] (H-H[Aib]EGTFTSDVSFLK([AEEA-AEEA-γGlu-C20 diacid])EEAAEQRFLEHLV-NH2) | 0.10 | 11030 | 179887 | 0.0398 | 7940 |  |  |  |  |  |  |
| CC[C@H](C)[C@H](NC(=O)[C@H](Cc1ccccc1)NC(=O)[C@H](CCCNC(=N)N)NC(=O)[C@H](CCC(N)=O)NC(=O)[C@H](CC(C)C)NC(=O)[C@H](C)NC(=O)[C@H](C)NC(=O)CNC(=O)[C@H](CCC(=O)O)NC(=O)[C@H](CC(C)C)NC(=O)[C@H](CC(C)C)NC(=O)[C@H](CCCNC(=N)N)NC(=O)[C@H](CO)NC(=O)C(C)(C)NC(=O)[C@H](CC(=O)O)NC(=O)[C@H](CO)NC(=O)[C@@H](NC(=O)[C@H](Cc1ccccc1)NC(=O)[C@@H](NC(=O)CNC(=O)[C@H](CCC(=O)O)NC(=O)C(C)(C)NC(=O)[C@@H](N)Cc1c[nH]cn1)[C@@H](C)O)[C@@H](C)O)C(=O)N[C@@H](CCC(N)=O)C(=O)N[C@@H](Cc1c[nH]c2ccccc12)C(=O)N[C@@H](CC(C)C)C(=O)N[C@H](C(N)=O)C(C)C [compound 104] (H-H[Aib]EGTFTSD[Aib]SRLLEGAALQRFIQWLV-NH2) | 0.12 | 1348 |  |  |  | 0.126 | 2902 | 316 |  |  |  |
| CC(C)C[C@H](NC(=O)[C@H](Cc1ccccc1)NC(=O)[C@H](CCCNC(=N)N)NC(=O)[C@H](CCC(N)=O)NC(=O)[C@H](CC(C)C)NC(=O)C(C)(C)NC(=O)[C@H](C)NC(=O)[C@H](CCC(=O)O)NC(=O)[C@H](CCC(=O)O)NC(=O)[C@H](CCCCNC(=O)COCCOCCNC(=O)COCCOCCNC(=O)CC[C@H](NC(=O)CCCCCCCCCCCCCCCCCCC(=O)O)C(=O)O)NC(=O)[C@H](CC(C)C)NC(=O)[C@H](Cc1ccc(O)cc1)NC(=O)[C@H](CO)NC(=O)[C@@H](NC(=O)[C@H](CC(=O)O)NC(=O)[C@H](CO)NC(=O)[C@@H](NC(=O)[C@H](Cc1ccccc1)NC(=O)[C@@H](NC(=O)CNC(=O)[C@H](CCC(=O)O)NC(=O)[C@H](C)NC(=O)[C@@H](N)Cc1c[nH]cn1)[C@@H](C)O)[C@@H](C)O)C(C)C)C(=O)N[C@@H](CCC(=O)O)C(=O)N[C@@H](Cc1c[nH]cn1)C(=O)N[C@@H](CC(C)C)C(=O)N[C@H](C(N)=O)C(C)C [compound 166] (H-HAEGTFTSDVSYLK([AEEA-AEEA-γGlu-C20 diacid])EEA[Aib]LQRFLEHLV-NH2) | 0.08 | 4253 |  |  |  | 0.00794 | 41476 | 316 |  |  |  |
| CC(C)C[C@H](NC(=O)[C@H](Cc1ccc(O)cc1)NC(=O)[C@H](CCCNC(=N)N)NC(=O)[C@H](CCC(N)=O)NC(=O)[C@H](CC(C)C)NC(=O)C(C)(C)NC(=O)[C@H](C)NC(=O)[C@H](CCC(=O)O)NC(=O)[C@H](CCC(=O)O)NC(=O)[C@H](CCCCNC(=O)COCCOCCNC(=O)COCCOCCNC(=O)CC[C@H](NC(=O)CCCCCCCCCCCCCCCCCCC(=O)O)C(=O)O)NC(=O)[C@H](CC(C)C)NC(=O)[C@H](Cc1ccc(O)cc1)NC(=O)[C@H](CO)NC(=O)[C@@H](NC(=O)[C@H](CC(=O)O)NC(=O)[C@H](CO)NC(=O)[C@@H](NC(=O)[C@H](Cc1ccccc1)NC(=O)[C@@H](NC(=O)CNC(=O)[C@H](CCC(=O)O)NC(=O)C(C)(C)NC(=O)[C@@H](N)Cc1c[nH]cn1)[C@@H](C)O)[C@@H](C)O)C(C)C)C(=O)N[C@@H](CCC(=O)O)C(=O)N[C@@H](Cc1c[nH]cn1)C(=O)N[C@@H](CC(C)C)C(=O)N[C@H](C(N)=O)C(C)C [compound 141] (H-H[Aib]EGTFTSDVSYLK([AEEA-AEEA-γGlu-C20 diacid])EEA[Aib]LQRYLEHLV-NH2) | 0.08 | 3233 |  |  |  | 0.00398 | 59910 | 251 |  |  |  |
| CC[C@H](C)[C@H](NC(=O)[C@H](Cc1ccccc1)NC(=O)[C@H](CCCNC(=N)N)NC(=O)[C@H](CCC(N)=O)NC(=O)[C@H](CC(C)C)NC(=O)[C@H](C)NC(=O)[C@H](C)NC(=O)CNC(=O)[C@H](CCC(=O)O)NC(=O)[C@H](CC(C)C)NC(=O)[C@H](CC(C)C)NC(=O)[C@H](CCC(=O)O)NC(=O)[C@H](CO)NC(=O)[C@H](Cc1ccc(O)cc1)NC(=O)[C@H](CC(=O)O)NC(=O)[C@H](CO)NC(=O)[C@@H](NC(=O)[C@H](Cc1ccccc1)NC(=O)[C@@H](NC(=O)CNC(=O)[C@H](CCC(=O)O)NC(=O)C(C)(C)NC(=O)[C@@H](N)Cc1c[nH]cn1)[C@@H](C)O)[C@@H](C)O)C(=O)N[C@@H](CCC(N)=O)C(=O)N[C@@H](Cc1c[nH]c2ccccc12)C(=O)N[C@@H](CC(C)C)C(=O)N[C@H](C(N)=O)C(C)C [compound 199] (H-H[Aib]EGTFTSDYSELLEGAALQRFIQWLV-NH2) | 0.46 | 260000 |  |  |  |  |  |  | 0.0251 | 223 | 5.01 |
| CC[C@H](C)[C@H](NC(=O)[C@H](Cc1ccccc1)NC(=O)[C@H](CCCNC(=N)N)NC(=O)[C@H](CCC(N)=O)NC(=O)[C@H](CC(C)C)NC(=O)[C@H](C)NC(=O)[C@H](C)NC(=O)CNC(=O)[C@H](CCC(=O)O)NC(=O)[C@H](CC(C)C)NC(=O)[C@H](CC(C)C)NC(=O)[C@H](Cc1c[nH]c2ccccc12)NC(=O)[C@H](CO)NC(=O)[C@@H](NC(=O)[C@H](CC(=O)O)NC(=O)[C@H](CO)NC(=O)[C@@H](NC(=O)[C@H](Cc1ccccc1)NC(=O)[C@@H](NC(=O)CNC(=O)[C@H](CCC(=O)O)NC(=O)C(C)(C)NC(=O)[C@@H](N)Cc1c[nH]cn1)[C@@H](C)O)[C@@H](C)O)[C@@H](C)CC)C(=O)N[C@@H](CCC(N)=O)C(=O)N[C@@H](Cc1c[nH]c2ccccc12)C(=O)N[C@@H](CC(C)C)C(=O)N[C@H](C(N)=O)C(C)C [compound 118] (H-H[Aib]EGTFTSDISWLLEGAALQRFIQWLV-NH2) | 0.63 | 143374 |  |  |  | 0.0631 | 1256 | 79.4 |  |  |  |
| CC(C)C[C@H](NC(=O)[C@H](Cc1ccccc1)NC(=O)[C@H](CCCNC(=N)N)NC(=O)[C@H](CCC(N)=O)NC(=O)[C@H](CCC(=O)O)NC(=O)[C@H](C)NC(=O)[C@H](C)NC(=O)[C@H](CCC(=O)O)NC(=O)[C@H](CCC(=O)O)NC(=O)[C@H](CCCCNC(=O)COCCOCCNC(=O)COCCOCCNC(=O)CC[C@H](NC(=O)CCCCCCCCCCCCCCCCCCC(=O)O)C(=O)O)NC(=O)[C@H](CC(C)C)NC(=O)[C@H](Cc1ccc(O)cc1)NC(=O)[C@H](CO)NC(=O)[C@@H](NC(=O)[C@H](CC(=O)O)NC(=O)[C@H](CO)NC(=O)[C@@H](NC(=O)[C@H](Cc1ccccc1)NC(=O)[C@@H](NC(=O)CNC(=O)[C@H](CCC(=O)O)NC(=O)C(C)(C)NC(=O)[C@@H](N)Cc1c[nH]cn1)[C@@H](C)O)[C@@H](C)O)C(C)C)C(=O)N[C@@H](CCC(=O)O)C(=O)N[C@@H](Cc1c[nH]cn1)C(=O)N[C@@H](CC(C)C)C(=O)N[C@H](C(N)=O)C(C)C [compound 95] (H-H[Aib]EGTFTSDVSYLK([AEEA-AEEA-γGlu-C20 diacid])EEAAEQRFLEHLV-NH2) | 0.08 | 10160 |  |  |  | 0.02 | 840427 | 15800 |  |  |  |
